In the supplement of paper PMC11451515:

Experiments:
Details in all cases: 48 h
SEM cells [1] = test: AUC of viability dose-response curve (% viability x log10 dose units); higher = less sensitive
Method in brief: (§1)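 Seeding of medium-adapted leukemia cells was at 500 or 1000 cells/well in 1536-well plates, followed by 48 h at 37°C with library compounds in DMSO at 11 threefold doses from 47 μM to 0.79 nM. CellTiter-Glo One luminescence was normalised per plate to DMSO and cell-free wells and fitted as a four-parameter log-logistic function of log10 dose. Area under the curve was integrated by trapezoidal rule, with curves exceeding full viability scaled and curves failing quality control removed.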

P12-Ichikawa [2] = test: as above
Method in brief: as §1

NOMO1 [3] = test: as above
Method in brief: as §1

NOMO1 [4] = test: cell viability relative to DMSO control; higher = less cytotoxic
Method in brief: (§2)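 Library compounds in DMSO were pin-dosed in an 11-point threefold series (47 μM to 0.79 nM) onto leukemia cells in 1536-well plates (5 μl). Plates held 500 cells/well of NOMO1 or SEM or 1000 cells/well of P12-Ichikawa, each adapted for at least four passages in each medium. Luminescence was read with CellTiter-Glo One after 48 h at 37°C. Viability means the per-plate percentage relative to DMSO wells, using cell-free wells as background.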

SEM cells [5] = test: as above
Method in brief: as §2

P12-Ichikawa [6] = test: as above
Method in brief: as §2

C[C@]\12CC[C@H](O)CC1=C/C[C@@H]3[C@@H]2CC[C@@]\4(C)[C@H]3C\C=C4C5=CN=CC=C5
AUC of viability dose-response curve
Details | NOMO1 [3] | P12-Ichikawa [2] | SEM cells [1]
HPLM + 10% dialyzed FBS | 472 | 468 | 469
RPMI 5 mM glucose + 10% FBS | 472 | 460 | 456
RPMI 5 mM glucose + 10% dialyzed FBS | 454 | 459 | 469

COc1ccc(-c2ccc3c(N4CCOCC4)nc(N4C[C@@H](C)O[C@@H](C)C4)nc3n2)cc1CO
AUC of viability dose-response curve
Details | NOMO1 [3] | P12-Ichikawa [2] | SEM cells [1]
HPLM + 10% dialyzed FBS | 304 | 336 | 343
RPMI 5 mM glucose + 10% FBS | 372 | 301 | 342
RPMI 5 mM glucose + 10% dialyzed FBS | 353 | 326 | 356

C1=C/COCc2cc(ccc2OCCN2CCCC2)Nc2nccc(n2)-c2cccc(c2)OCC/1
AUC of viability dose-response curve
Details | HPLM + 10% dialyzed FBS | RPMI 5 mM glucose + 10% FBS | RPMI 5 mM glucose + 10% dialyzed FBS
P12-Ichikawa [2] | 409 | 415 | 406
SEM cells [1] | 354 | 369 | 350

NOMO1 [4], HPLM + 10% dialyzed FBS
Details | cell viability [%]
0.000781 µM | 20.8
0.00234 µM | 84.8
0.00702 µM | 123
0.0211 µM | 133
0.0632 µM | 161
0.19 µM | 130
0.569 µM | 124
1.71 µM | 94.7
5.12 µM | 63.2
15.4 µM | 7.96
46.1 µM | 5.7

NC/1=N/C(=O)C2=C(N1)[N](C=N2)[C@@H]3C[C@H](O)[C@@H](CO)C3=C
AUC of viability dose-response curve
Details | NOMO1 [3] | P12-Ichikawa [2] | SEM cells [1]
HPLM + 10% dialyzed FBS | 385 | 351 | 248
RPMI 5 mM glucose + 10% FBS | 423 | 342 | 272
RPMI 5 mM glucose + 10% dialyzed FBS | 378 | 331 | 200

COc1ccc2cc([C@H](C)C(=O)O)ccc2c1
AUC of viability dose-response curve
Details | NOMO1 [3] | P12-Ichikawa [2] | SEM cells [1]
HPLM + 10% dialyzed FBS | 465 | 448 | 412
RPMI 5 mM glucose + 10% FBS | 476 | 469 | 401
RPMI 5 mM glucose + 10% dialyzed FBS | 460 | 464 | 410

C[C@H](CCC(=O)O)[C@H]1CC[C@H]2[C@@H]3[C@@H](O)C[C@@H]4C[C@H](O)CC[C@]4(C)[C@H]3CC[C@]12C
AUC of viability dose-response curve
Details | NOMO1 [3] | P12-Ichikawa [2] | SEM cells [1]
HPLM + 10% dialyzed FBS | 401 | 445 | 441
RPMI 5 mM glucose + 10% FBS | 414 | 461 | 462
RPMI 5 mM glucose + 10% dialyzed FBS | 398 | 435 | 449

OC[C@H]1O[C@@H](OCCc2ccc(O)cc2)[C@H](O)[C@@H](O)[C@@H]1O
AUC of viability dose-response curve
Details | NOMO1 [3] | P12-Ichikawa [2] | SEM cells [1]
HPLM + 10% dialyzed FBS | 459 | 435 | 447
RPMI 5 mM glucose + 10% FBS | 458 | 456 | 432
RPMI 5 mM glucose + 10% dialyzed FBS | 464 | 461 | 419

O=C(/C=C\n1cnc(-c2cc(C(F)(F)F)cc(C(F)(F)F)c2)n1)NNc1cnccn1
AUC of viability dose-response curve
Details | HPLM + 10% dialyzed FBS | RPMI 5 mM glucose + 10% FBS | RPMI 5 mM glucose + 10% dialyzed FBS
P12-Ichikawa [2] | 302 | 296 | 295
SEM cells [1] | 310 | 301 | 309

COC(=O)Nc1nc2cc(C(=O)c3ccccc3)ccc2[nH]1
AUC of viability dose-response curve
Details | HPLM + 10% dialyzed FBS | RPMI 5 mM glucose + 10% FBS | RPMI 5 mM glucose + 10% dialyzed FBS
NOMO1 [3] | 401 | 389 | 397
SEM cells [1] | 303 | 286 | 291

cell viability [%], SEM cells [5]
Details | HPLM + 10% dialyzed FBS | RPMI 5 mM glucose + 10% FBS
0.000781 µM | 115 | 120
0.00234 µM | 124 | 125
0.00702 µM | 130 | 125
0.0211 µM | 126 | 122
0.0632 µM | 100 | 96.4
0.19 µM | 24.4 | 18
0.569 µM | 69.6 | 59.3
1.71 µM | 128 | 86.8
5.12 µM | 26.6 | 22.6
15.4 µM | 24.1 | 23.4
46.1 µM | 24.1 | 19.2

C[S+](=O)([O-])c1cc(F)cc2c3c(n(Cc4ccc(Cl)cc4)c12)[C@@H](CC(=O)O)CC3
AUC of viability dose-response curve
Details | HPLM + 10% dialyzed FBS | RPMI 5 mM glucose + 10% FBS | RPMI 5 mM glucose + 10% dialyzed FBS
P12-Ichikawa [2] | 466 | 451 | 467
SEM cells [1] | 477 | 468 | 461

CC(C)OC(=O)/C1=C/N(CC(C)(C)C2=C1[NH]C3=CC=CC=C23)C(=O)C4=CC=C(F)C(=C4)F
AUC of viability dose-response curve
Details | HPLM + 10% dialyzed FBS | RPMI 5 mM glucose + 10% FBS | RPMI 5 mM glucose + 10% dialyzed FBS
NOMO1 [3] | 424 | 384 | 351
SEM cells [1] | 342 | 364 | 394

cell viability [%]
Details | NOMO1 [4] | P12-Ichikawa [6] | SEM cells [5]
HPLM + 10% dialyzed FBS, 0.000781 µM | 86.3 | 83.2 | 71.9
HPLM + 10% dialyzed FBS, 0.00234 µM | 80.4 | 84.5 | 76
HPLM + 10% dialyzed FBS, 0.00702 µM | 86 | 82.2 | 75.3
HPLM + 10% dialyzed FBS, 0.0211 µM | 91.8 | 89.6 | 73.4
HPLM + 10% dialyzed FBS, 0.0632 µM | 81.3 | 89.4 | 81
HPLM + 10% dialyzed FBS, 0.19 µM | 89.8 | 83.4 | 68.9
HPLM + 10% dialyzed FBS, 0.569 µM | 98.3 | 86.4 | 62
HPLM + 10% dialyzed FBS, 1.71 µM | 98 | 83.9 | 72.9
HPLM + 10% dialyzed FBS, 5.12 µM | 89.9 | 87.8 | 78.9
HPLM + 10% dialyzed FBS, 15.4 µM | 85.6 | 91.6 | 59.6
HPLM + 10% dialyzed FBS, 46.1 µM | 91.2 | 95.7 | 67.1
RPMI 5 mM glucose + 10% FBS, 0.000781 µM | 72.7 | 79 | 76.8
RPMI 5 mM glucose + 10% FBS, 0.00234 µM | 78.4 | 78.7 | 83.5
RPMI 5 mM glucose + 10% FBS, 0.00702 µM | 79.7 | 79 | 88.2
RPMI 5 mM glucose + 10% FBS, 0.0211 µM | 80.8 | 79 | 80.2
RPMI 5 mM glucose + 10% FBS, 0.0632 µM | 89 | 83.4 | 79.8
RPMI 5 mM glucose + 10% FBS, 0.19 µM | 79.4 | 83.9 | 67.7
RPMI 5 mM glucose + 10% FBS, 0.569 µM | 84.3 | 84.9 | 71.1
RPMI 5 mM glucose + 10% FBS, 1.71 µM | 76.4 | 82.9 | 71.8
RPMI 5 mM glucose + 10% FBS, 5.12 µM | 82.7 | 87.2 | 79.6
RPMI 5 mM glucose + 10% FBS, 15.4 µM | 78.2 | 84.1 | 61.8
RPMI 5 mM glucose + 10% FBS, 46.1 µM | 83.5 | 83.8 | 78.6
RPMI 5 mM glucose + 10% dialyzed FBS, 0.000781 µM | 74.5 | 75.3 | 72.9
RPMI 5 mM glucose + 10% dialyzed FBS, 0.00234 µM | 74.8 | 77.3 | 82
RPMI 5 mM glucose + 10% dialyzed FBS, 0.00702 µM | 70.6 | 78.1 | 80
RPMI 5 mM glucose + 10% dialyzed FBS, 0.0211 µM | 70.8 | 85.2 | 86
RPMI 5 mM glucose + 10% dialyzed FBS, 0.0632 µM | 69.4 | 78.5 | 94.9
RPMI 5 mM glucose + 10% dialyzed FBS, 0.19 µM | 70.6 | 80.7 | 89
RPMI 5 mM glucose + 10% dialyzed FBS, 0.569 µM | 66.6 | 75.9 | 71.5
RPMI 5 mM glucose + 10% dialyzed FBS, 1.71 µM | 82 | 75.7 | 87.4
RPMI 5 mM glucose + 10% dialyzed FBS, 5.12 µM | 80.5 | 78.4 | 106
RPMI 5 mM glucose + 10% dialyzed FBS, 15.4 µM | 79.1 | 73.7 | 65.5
RPMI 5 mM glucose + 10% dialyzed FBS, 46.1 µM | 72.5 | 82.4 | 73.1

OC(=O)C/1=C/C(=O)NC(=O)N1
AUC of viability dose-response curve
Details | NOMO1 [3] | P12-Ichikawa [2] | SEM cells [1]
HPLM + 10% dialyzed FBS | 424 | 455 | 466
RPMI 5 mM glucose + 10% FBS | 450 | 457 | 457
RPMI 5 mM glucose + 10% dialyzed FBS | 437 | 456 | 458
